# Experimental data taken from patent US5516796A, “Thioprostaglandins and -prostaglandin-like compounds and therapeutic uses thereof” (Kabi Pharmacia AB, priority 1994, dated 1996).
# Key:
# rat gastric fundus = assay: In vitro bioassay, rat gastric fundus
# From the text: (§1) In vitro bioassay studies of thioprostaglandins according to this invention have shown that such thioprostaglandins exert biological effects on several mammalian tissues and organ systems. […] These biological effects have no known relationship to the IOP lowering effects of these prostaglandins.
# bovine iris sphincter = assay: In vitro bioassay, bovine iris sphincter
# From the text: as §1
# cat iris sphincter = assay: In vitro bioassay, cat iris sphincter
# From the text: as §1
# [1] = test system: circular preparation of the guinea pig ileum; assay: In vitro bioassay, guinea pig ileum circular preparation
# From the text: as §1
# platelet aggregation = assay: In vitro bioassay, platelet aggregation; format: cell-based
# From the text: as §1
# eye [2] = assay: Ocular irritation (discomfort) after topical application, scale 0-3; format: in vivo, cats; details: for Maximum ocular irritation, Difference (experimental vs contralateral control eye): cats, topical, mean ± SEM, n = 6; for Ocular irritation grade (maximum irritation): same test system
# Protocol: (§2) Experiments were performed in cats and rabbits. The test compounds were administered topically to the eye. The compounds were tested by using a single dose of each concentration. The intraocular pressure in cats was measured with a pneumotonometer (Digilab Modular One, BioRad). Before the measurement the cornea was anaesthetized with 1-2 drops of oxibuprocain. The ocular irritation (discomfort) caused by the test compounds was assessed without anaesthesia in the same animals. The irritation was graded on an arbitrary scale 0-3, 0 indicating absence of irritation, and 3 indicating maximum irritation as obvious from complete lid closure. Surface hyperemia of the eye (redness of the eye) was evaluated in rabbits. The eye was photographed at regular intervals and the degree of hyperemia was evaluated from the color photographs in a masked way. The hyperemia was evaluated on an arbitrary scale 0-5, 0 indicating absence of hyperemia and 5 marked hyperemia and conjunctival chemosis. All compounds were formulated in physiologic saline using polysorbate 80 as solubilizer. The same volume of the vehicle only was applied topically on the contralateral control eye.
# Maximum ocular irritation after topical
# application of different thioprostaglandin compounds in
# cats. The values represent the difference between the
# experimental and contralateral control eyes (Mean ± SEM,
# eye [3] = assay: Maximum reduction of intraocular pressure in cats after topical application; format: in vivo; details: for Intraocular pressure, Exp Eye / Maximum reduction of intraocular pressure, Difference (Exp Eye vs Cont Eye): 1-3 hours after application, mean ± SEM, n = 6
# Protocol: as §2
# Maximum reduction of intraocular pressure in cats 1-3 hours after
# application of different thioprostaglandin compounds (Mean ± SEM; n =
# eye [4] = assay: Surface hyperemia of the eye after topical application, scale 0-5; format: in vivo, rabbits; details: 0.5 μg; for Maximum surface hyperemia of the eye, Difference (Exp Eye vs Cont Eye) / Maximum surface hyperemia of the eye, Exp Eye: rabbits, topical, mean ± SEM, n = 6; for Ocular surface hyperemia grade: same test system
# Protocol: as §2
# Maximum surface hyperemia of the eye after
# topical application of different thioprostaglandins in
# rabbits. (Mean ± SEM, n = 6).
"Maximum surface hyperemia of the eye, Difference (Exp Eye vs Cont Eye) (eye [4])","Maximum surface hyperemia of the eye, Exp Eye (eye [4])",SMILES,"Maximum ocular irritation, Difference (experimental vs contralateral control eye) (eye [2]; 3 μg)","Intraocular pressure, Exp Eye (eye [3]; 3 ug)","Maximum reduction of intraocular pressure, Difference (Exp Eye vs Cont Eye) (eye [3]; 3 ug)","Maximum ocular irritation, Difference (experimental vs contralateral control eye) (eye [2]; 1 μg)","Intraocular pressure, Exp Eye (eye [3]; 1 ug)","Maximum reduction of intraocular pressure, Difference (Exp Eye vs Cont Eye) (eye [3]; 1 ug)",other results
0.6 ± -0.2,1.2 ± -0.2,"CCCCC[C@H](O)/C=C/[C@H]1C(Sc2ccccc2C(=O)OC)CC(=O)[C@@H]1C/C=C\CCCC(=O)OC (some centres unmarked) [Compound 7, 11-Deoxy-11-[thio-2-(methylbenzoate)-]PGE2 methyl ester]",,,,1.08 ± -0.2,16.2 ± -1.3 mmHg,-4.3 ± -0.7 mmHg,
0.3 ± -0.2,1.1 ± -0.2,"CCCCC[C@H](O)/C=C/[C@H]1C(SCCC(=O)OCC)CC(=O)[C@@H]1C/C=C\CCCC(=O)OC (some centres unmarked) [Compound 5, 11-Deoxy-11-[3-thio-(1-ethylpropionate)] PGE2 methyl ester]",0.58 ± -0.08,11.5 ± -1.6 mmHg,-9.2 ± -1.2 mmHg,1.08 ± -0.2,12.7 ± -1.0 mmHg,-9.5 ± -0.8 mmHg,"Maximum ocular irritation, Difference (experimental vs contralateral control eye) (eye [2]; 10 μg): 2.00 ± -0.1; Reduction of intraocular pressure (in words) (eye [3]): The strongest effect; Reduction of intraocular pressure at low dose (in words) (eye [3]; 1 μg): markedly reduced the pressure; Intraocular pressure, Exp Eye (eye [3]; 10 ug): 12.3 ± -1.3 mmHg; Maximum reduction of intraocular pressure, Difference (Exp Eye vs Cont Eye) (eye [3]; 10 ug): -10.0 ± -0.9 mmHg"
0.8 ± -0.1,1.7 ± -0.1,"CCCCC[C@H](O)/C=C/[C@H]1C(SCCO)CC(=O)[C@@H]1C/C=C\CCCC(=O)OC (some centres unmarked) [Compound 6, 11-Deoxy-11-(thio-1-ethanol)-PGE2 methyl ester]",0.67 ± -0.1,13.8 ± -0.9 mmHg,-6.0 ± -1.3 mmHg,0.92 ± -0.08,14.7 ± -1.0 mmHg,-5.8 ± -1.0 mmHg,

# The next lines start with the compound.
SMILES,"Maximum surface hyperemia of the eye, Difference (Exp Eye vs Cont Eye) (eye [4])","Maximum surface hyperemia of the eye, Exp Eye (eye [4])","Maximum ocular irritation, Difference (experimental vs contralateral control eye) (eye [2]; 3 μg)","Intraocular pressure, Exp Eye (eye [3]; 3 ug)","Maximum reduction of intraocular pressure, Difference (Exp Eye vs Cont Eye) (eye [3]; 3 ug)","Maximum ocular irritation, Difference (experimental vs contralateral control eye) (eye [2]; 1 μg)","Intraocular pressure, Exp Eye (eye [3]; 1 ug)","Maximum reduction of intraocular pressure, Difference (Exp Eye vs Cont Eye) (eye [3]; 1 ug)",other results
"CCCCC[C@H](O)/C=C/[C@H]1C(SCc2ccccc2)CC(=O)[C@@H]1C/C=C\CCCC(=O)OCc1ccccc1 (some centres unmarked) [Compound 3, 11-deoxy-11-thiobenzyl-PGE2 benzyl ester]",,,0.08 ± -0.08,14.7 ± -0.7 mmHg,-3.7 ± -1.3 mmHg,,,,"Stimulation of the rat gastric fundus (rat gastric fundus): stimulate; Stimulation of the bovine iris sphincter (bovine iris sphincter): stimulate; Stimulation of the cat iris sphincter (cat iris sphincter): stimulate; Stimulation of the circular preparation of the guinea pig ileum [1]: stimulate; Effect on platelet aggregation (platelet aggregation): affect platelet aggregation; Maximum ocular irritation, Difference (experimental vs contralateral control eye) (eye [2]; 5 μg): 1.33 ± -0.1; Intraocular pressure, Exp Eye (eye [3]; 5 ug): 13.0 ± -0.4 mmHg; Maximum reduction of intraocular pressure, Difference (Exp Eye vs Cont Eye) (eye [3]; 5 ug): -3.8 ± -0.5 mmHg; 24 hour reduction of the intraocular pressure (in words) (eye [3]; 24 hour): Except for compound 3, all compounds caused 24 hour reduction of the intraocular pressure"
"CCCCC[C@H](O)/C=C/[C@H]1[C@H](O)CC(=O)[C@@H]1C/C=C\CCCC(=O)OC(C)C [PGE2 -isopropyl ester, reference compound]",,,,,,,,,Ocular surface hyperemia grade (eye [4]): ≥ 2.9 grade; Ocular irritation grade (maximum irritation) (eye [2]; 1 μg): 3 grade
"CCCCC[C@H](O)/C=C/[C@@H]1[C@@H](C/C=C\CCCC(=O)OC(C)C)[C@@H](O)C[C@H]1O [PGF2α -isopropyl ester, reference compound]",,,,,,,,,Ocular surface hyperemia grade (eye [4]): ≥ 2.9 grade; Ocular irritation grade (maximum irritation) (eye [2]; 1 μg): 3 grade
CCCCC[C@H](O)/C=C/[C@H]1C(SCC(N)C(=O)OCC)CC(=O)[C@@H]1C/C=C\CCCC(=O)OCc1ccccc1 (some centres unmarked) [Compound 4],,,0.75 ± -0.1,16.3 ± -0.7 mmHg,-4.3 ± -1.6 mmHg,,,,"Stimulation of the rat gastric fundus (rat gastric fundus): stimulate; Stimulation of the bovine iris sphincter (bovine iris sphincter): stimulate; Stimulation of the cat iris sphincter (cat iris sphincter): stimulate; Stimulation of the circular preparation of the guinea pig ileum [1]: stimulate; Effect on platelet aggregation (platelet aggregation): affect platelet aggregation; Maximum ocular irritation, Difference (experimental vs contralateral control eye) (eye [2]; 10 μg): 0.58 ± -0.08; Intraocular pressure, Exp Eye (eye [3]; 10 ug): 14.0 ± -0.7 mmHg; Maximum reduction of intraocular pressure, Difference (Exp Eye vs Cont Eye) (eye [3]; 10 ug): -5.8 ± -1.1 mmHg"
